Laboratory results: PubChem BioAssay (NCI)
“And” between values parts separate entries of the source, which are not always exact repeats. Identical values can stand only once.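 Results reflect a 48-hour exposure of cells in 96-well plates to compound at five concentrations. At the GI50, growth is halved. TGI marks complete inhibition of growth.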

Legend:
Experiment in all cases: growth of human tumour cells (NCI), 48 h
SR leukemia = system: SR leukemia
SK-MEL-28 melanoma = system: SK-MEL-28 melanoma
NCI-H226 lung = system: NCI-H226 lung
SF-539 CNS = system: SF-539 CNS
NCI-H23 lung = system: NCI-H23 lung
U251 CNS = system: U251 CNS
HOP-92 NSCLC = system: HOP-92 NSCLC
MDA-MB-435 = system: MDA-MB-435
MDA-MB-231 breast = system: MDA-MB-231 breast
PC-3 prostate = system: PC-3 prostate

## CC(=O)OC1CCC2OOC1O2 (stereo unspecified)
SR leukemia
  TGI: > 100 µM
SK-MEL-28 melanoma
  TGI: > 100 µM
NCI-H226 lung
  TGI: > 100 µM
SF-539 CNS
  TGI: > 100 µM
NCI-H23 lung
  TGI: > 100 µM
U251 CNS
  TGI: > 100 µM

## Cc1ccc2c(c1)-c1c3c(nn1C)-c1ccccc1SC3O2 (stereo unspecified)
SK-MEL-28 melanoma
  TGI: > 100 µM
SF-539 CNS
  TGI: > 100 µM
NCI-H23 lung
  TGI: > 100 µM
HOP-92 NSCLC
  TGI: > 100 µM
U251 CNS
  TGI: > 100 µM

## O=C(O)c1ccc2c(c1)C(=O)N(c1ccc(S(=O)(=O)c3ccc(N4C(=O)c5ccc(C(=O)O)cc5C4=O)cc3)cc1)C2=O
SR leukemia
  TGI: > 100 µM
SK-MEL-28 melanoma
  TGI: > 100 µM
NCI-H226 lung
  TGI: > 100 µM
SF-539 CNS
  TGI: > 100 µM
NCI-H23 lung
  TGI: > 100 µM
U251 CNS
  TGI: > 100 µM

## COc1cccc2c1C(=O)c1c(O)c3c(c(O)c1C2=O)C[C@@](O)(C(=O)CO)CC3OC1CC(N)C(OC2CCCCO2)C(C)O1 (stereo partly specified)
MDA-MB-435
  TGI: 0.229 µM
SR leukemia
  GI50: < 0.001 µM
SK-MEL-28 melanoma
  GI50: 0.113 µM
SF-539 CNS
  GI50: 0.00352 µM
MDA-MB-231 breast
  TGI: 0.273 µM
NCI-H23 lung
  GI50: 0.0218 µM
  TGI: 0.302 µM and 2.33 µM
HOP-92 NSCLC
  TGI: 0.537 µM
U251 CNS
  GI50: 0.00812 µM
PC-3 prostate
  TGI: 0.363 µM

## COc1ccc(CN2C(=O)[C@@H]3Cc4c(OC)c(C)c(OC)c(OC)c4[C@H](/C2=C\c2cc(OC)c(OC)c(C)c2OC)N3C(=O)OC(C)C)cc1
SR leukemia
  TGI: > 100 µM
SK-MEL-28 melanoma
  TGI: > 100 µM
NCI-H226 lung
  TGI: 34.1 µM
SF-539 CNS
  TGI: > 100 µM
NCI-H23 lung
  TGI: > 100 µM
HOP-92 NSCLC
  TGI: > 100 µM
U251 CNS
  TGI: > 100 µM

## Cc1ccccc1NC(=O)/C(=N\NC(N)=S)C(C#N)c1ccccc1 (stereo unspecified)
SR leukemia
  TGI: > 100 µM
SK-MEL-28 melanoma
  TGI: > 100 µM
NCI-H226 lung
  TGI: > 100 µM
SF-539 CNS
  TGI: > 100 µM
NCI-H23 lung
  TGI: > 100 µM
HOP-92 NSCLC
  TGI: > 100 µM
U251 CNS
  TGI: > 100 µM

## Nc1ccccc1C#C/C=C\C#Cc1ccccc1C#CCO
MDA-MB-435
  GI50: 1.51 µM
  TGI: 4.21 µM
SR leukemia
  GI50: 0.405 µM
  TGI: > 50 µM
SK-MEL-28 melanoma
  GI50: 15.3 µM
  TGI: > 50 µM
SF-539 CNS
  GI50: 10.8 µM
  TGI: 27.1 µM
MDA-MB-231 breast
  GI50: 7.73 µM
  TGI: 28.7 µM
NCI-H23 lung
  GI50: 1.83 µM
  TGI: 6.9 µM
HOP-92 NSCLC
  GI50: 11.9 µM
  TGI: > 50 µM
U251 CNS
  GI50: 7.41 µM
  TGI: 18.7 µM
PC-3 prostate
  GI50: 27.5 µM
  TGI: > 50 µM

## O=C(Nc1ccncc1)C(=O)c1cn(S(=O)(=O)c2cccc(Cl)c2)c2ccccc12
SK-MEL-28 melanoma
  GI50: 10.2 µM
  TGI: 60.1 µM
NCI-H226 lung
  GI50: 13.6 µM
  TGI: > 100 µM
SF-539 CNS
  GI50: 4.61 µM
  TGI: 43.9 µM
MDA-MB-231 breast
  GI50: 10.6 µM
  TGI: 43.9 µM
NCI-H23 lung
  GI50: 4.65 µM
  TGI: > 100 µM
HOP-92 NSCLC
  GI50: 3.31 µM
  TGI: 23.1 µM
U251 CNS
  GI50: 5.78 µM
  TGI: > 100 µM
PC-3 prostate
  GI50: 11.8 µM
  TGI: > 100 µM

## CN(C)NC(=O)/C(=C/c1ccc(Cl)cc1)NC(=O)c1ccccc1
SR leukemia
  TGI: > 100 µM
SK-MEL-28 melanoma
  TGI: > 100 µM
NCI-H226 lung
  TGI: > 100 µM
SF-539 CNS
  TGI: > 100 µM
NCI-H23 lung
  TGI: > 100 µM
HOP-92 NSCLC
  TGI: > 100 µM
U251 CNS
  TGI: > 100 µM

## CN(C)NC1=C([N+](=O)[O-])C=NN(c2ccccc2)C1
SR leukemia
  TGI: 2.51 µM
SK-MEL-28 melanoma
  TGI: 3.21 µM
NCI-H226 lung
  TGI: 15.1 µM
SF-539 CNS
  TGI: 3.31 µM
NCI-H23 lung
  TGI: 3.42 µM
HOP-92 NSCLC
  TGI: 3.76 µM
U251 CNS
  TGI: 3.17 µM

## CC1(C)C(N2CCOCC2)CS1(=O)=O (stereo unspecified)
MDA-MB-435
  TGI: > 10 µM
SK-MEL-28 melanoma
  TGI: > 10 µM
NCI-H226 lung
  TGI: > 10 µM
SF-539 CNS
  TGI: > 10 µM
MDA-MB-231 breast
  TGI: > 10 µM
NCI-H23 lung
  TGI: > 10 µM
HOP-92 NSCLC
  TGI: > 10 µM
U251 CNS
  TGI: > 10 µM
PC-3 prostate
  TGI: > 10 µM

## Cc1ccccc1NC(=O)Cc1nc2ccccc2s1
SR leukemia
  TGI: 63 µM
SK-MEL-28 melanoma
  TGI: 32.9 µM
NCI-H226 lung
  TGI: 34.9 µM
SF-539 CNS
  TGI: 34.7 µM
NCI-H23 lung
  TGI: 27.8 µM
U251 CNS
  TGI: 24.1 µM

## CC1(C)c2ccccc2N2C(c3ccccc3)=NOC21C (stereo unspecified)
SR leukemia
  TGI: > 100 µM
SK-MEL-28 melanoma
  TGI: > 100 µM
NCI-H226 lung
  TGI: > 100 µM
SF-539 CNS
  TGI: > 100 µM
NCI-H23 lung
  TGI: > 100 µM
HOP-92 NSCLC
  TGI: > 100 µM
U251 CNS
  TGI: > 100 µM

## COc1cc(C(=O)/C=C/c2cc(-c3ccc4c(c3)OCO4)n[nH]2)cc(OC)c1OC
MDA-MB-435
  GI50: 2.28 µM
  TGI: 5.8 µM
SR leukemia
  GI50: 1.2 µM
  TGI: 5.63 µM
SK-MEL-28 melanoma
  GI50: 1.92 µM
  TGI: 4.18 µM
NCI-H226 lung
  GI50: 1.52 µM
  TGI: 4.25 µM
SF-539 CNS
  GI50: 1.33 µM
  TGI: 2.98 µM
MDA-MB-231 breast
  GI50: 2.08 µM
  TGI: 6.23 µM
NCI-H23 lung
  GI50: 2.9 µM
  TGI: 10.3 µM
U251 CNS
  GI50: 1.21 µM
  TGI: 2.49 µM
PC-3 prostate
  GI50: 1.51 µM
  TGI: 4.02 µM

## COc1cc(-c2nn(-c3ccc(NC(=O)Nc4cc(C(F)(F)F)cc(C(F)(F)F)c4)cc3)cc2-c2ccncc2)ccc1Cl
MDA-MB-435
  GI50: 1.88 µM
  TGI: 3.99 µM
SK-MEL-28 melanoma
  GI50: 1.93 µM
  TGI: 3.74 µM
NCI-H226 lung
  GI50: 1.92 µM
  TGI: 4.84 µM
SF-539 CNS
  GI50: 1.64 µM
  TGI: 3.71 µM
MDA-MB-231 breast
  GI50: 1.64 µM
  TGI: 3.34 µM
NCI-H23 lung
  GI50: 2.01 µM
  TGI: 5.56 µM
HOP-92 NSCLC
  GI50: 1.07 µM
  TGI: 4.32 µM
U251 CNS
  GI50: 1.8 µM
  TGI: 4.52 µM
PC-3 prostate
  GI50: 1.2 µM
  TGI: 10.8 µM

## C=CCn1c2ccccc2c2c3c(c4c5ccccc5n(CC=C)c4c21)C(=O)N(O)C3=O
MDA-MB-435
  GI50: 4.45 µM
  TGI: 29.6 µM
SR leukemia
  GI50: 0.363 µM
  TGI: 5.67 µM
SK-MEL-28 melanoma
  GI50: 5.47 µM
  TGI: > 100 µM
NCI-H226 lung
  GI50: 6.36 µM
  TGI: 42.2 µM
MDA-MB-231 breast
  GI50: 4.12 µM
  TGI: 21.4 µM
NCI-H23 lung
  GI50: 3.03 µM
  TGI: 22.2 µM
HOP-92 NSCLC
  GI50: 7.13 µM
  TGI: 25.5 µM
U251 CNS
  GI50: 2.79 µM
  TGI: 11.4 µM
PC-3 prostate
  GI50: 2.69 µM
  TGI: 25.3 µM

## COC(=O)c1c(O)ccc(O)c1C(C(C)=O)C(C)=O
SK-MEL-28 melanoma
  TGI: > 100 µM
SF-539 CNS
  TGI: > 100 µM
NCI-H23 lung
  TGI: > 100 µM
HOP-92 NSCLC
  TGI: > 100 µM
U251 CNS
  TGI: > 100 µM

## C[P+]1(Cc2ccccc2)CCCC1
SR leukemia
  TGI: > 100 µM
SK-MEL-28 melanoma
  TGI: > 100 µM
NCI-H226 lung
  TGI: > 100 µM
SF-539 CNS
  TGI: > 100 µM
NCI-H23 lung
  TGI: > 100 µM
U251 CNS
  TGI: > 100 µM

## c1ccc(-c2[nH]ncc2-c2ccnc(-c3ccc(OCCN4CCOCC4)cc3)c2)nc1
MDA-MB-435
  GI50: > 25 µM
  TGI: > 25 µM
SK-MEL-28 melanoma
  GI50: > 25 µM
  TGI: > 25 µM
NCI-H226 lung
  GI50: > 25 µM
  TGI: > 25 µM
SF-539 CNS
  GI50: > 25 µM
  TGI: > 25 µM
MDA-MB-231 breast
  GI50: > 25 µM
  TGI: > 25 µM
NCI-H23 lung
  GI50: > 25 µM
  TGI: > 25 µM
HOP-92 NSCLC
  GI50: > 25 µM
  TGI: > 25 µM
U251 CNS
  GI50: > 25 µM
  TGI: > 25 µM
PC-3 prostate
  GI50: > 25 µM
  TGI: > 25 µM

## Cc1cccc(C)c1NC(=O)CCC(=O)NC(N)=NC#N
SR leukemia
  TGI: > 100 µM
SK-MEL-28 melanoma
  TGI: > 100 µM
NCI-H226 lung
  TGI: > 100 µM
SF-539 CNS
  TGI: > 100 µM
NCI-H23 lung
  TGI: > 100 µM
HOP-92 NSCLC
  TGI: > 100 µM
U251 CNS
  TGI: > 100 µM
